Experimental data: patent US11358972B2, “Pentacyclic heterocycles” (Eisai R&D Management Co., Ltd., priority 2019, dated 2022)

What was measured:
[1] = test system: Choline Acetyltransferase (ChAT) mRNA; test: Measurement of choline acetyltransferase (ChAT) mRNA expression levels in the rat septal area; format: in vivo; conditions: po, SD male rats, medial septum, 24 hours after administration, read-out: Amount (%) increased from the amount of ChAT mRNA expression levels in the vehicle administration group
Procedure: Measurement of Choline Acetyltransferase (ChAT) mRNA Expression Levels in the Rat Septal Area (1) Compound Administration
In this study, Sprague-Dawley male rats (Charles River Laboratories Japan, Inc.) with a body weight of about 250 to 350 g were used. The test compound was dissolved in 0.01 mol/L hydrochloric acid, and orally administered.
At 24 hours after the administration of the compound, the whole brain tissue was collected under pentobarbital anesthesia. The medial septum was isolated from whole brain on ice and frozen with liquid nitrogen, and then stored at −80° C.
(3) Measurement of ChAT mRNA Expression Levels
For RNA purification, RNeasy™ Plus Mini Kit (#74136: QIAGEN) was used in this study. RNA purification was performed by the method described in the kit After RNA purification, the total RNA concentration was measured by using QIAxpert Instrument (QIAGEN). cDNA was synthesized using SuperScript™ VILO™ cDNA Synthesis Kit (#11754: Thermo Fisher Scientific). The synthesis of cDNA was performed by the method described in the kit. The synthesized cDNA was diluted 4 times with RNase free water, and the diluted cDNA solution was used as a sample. Taqman™ Universal PCR Master Mix (#4304437: Thermo Fisher Scientific), Taqman™ Gene Expression Assays, INVENTORIED (#4331182: Thermo Fisher Scientific), RNase free water, and the cDNA solution were mixed in amounts of 10 μL, 1 μL, 4 μL, and 5 μL, respectively, and the resulting mixture was used as a measurement sample solution. Quantitative polymerase chain reaction (qPCR) was conducted using ABI PRISM™ 7900HT (Thermo Fisher Scientific) by a fluorescence probe method. Analysis was performed by SDS 2.4 (Thermo Fisher Scientific). The results were calculated by the percentage of the amount of ChAT mRNA expression levels in the compound administration group increased from the amount of ChAT mRNA expression levels in the vehicle administration group.

[2] = test system: Rat primary septal neuron culture; test: Measurement of acetylcholine (ACh) release in the rat primary septal neuron culture system; format: cell-based; conditions: 24 h, rat primary septal neurons, with NGF, ACh release measured by HPLC one day after compound addition, read-out: Concentration (μM) showing a 20% or more increase from the amount of ACh in the control group
Excerpt: Measurement of Acetylcholine (ACh) Release in the Rat Primary Septal Neuron Culture System
(1) Rat Primary Septal Neuron Culture
The septal area was isolated from Sprague-Dawley (SD) rats (Charles River Laboratories Japan, Inc.) at a fetal age of 18 days, and cultured. Specifically, fetuses were removed from pregnant rats under isoflurane anesthesia. The brain was extracted from each fetus, and immersed in ice-cooled L-15 medium (11415-064, Thermo Fisher Scientific). The septal area was dissected from the extracted brain under a stereoscopic microscope. The dissected septal area was treated in 0.25% trypsin (15050-065, Thermo Fisher Scientific) and 0.01% DNase (D5025-150KU, Sigma) at 37° C. for 30 minutes, thereby dispersing the cells. In this case, the enzyme reaction was terminated by adding inactivated horse serum (26050-088, Thermo Fisher Scientific). The enzyme-treated solution was centrifuged at 1000 rpm for 3 minutes, and the supernatant was removed. A medium in an amount of 10 mL was added to the obtained cell mass. The medium used was Dulbecco's Modified Eagle's Medium (044-29765, WAKO) supplemented with N2 supplement (17502-048, Thermo Fisher Scientific), 1 mM sodium pyruvate (11360-070, Thermo Fisher Scientific), and Penicillin-Streptomycin (15140-1221, Thermo Fisher Scientific). The cells of the cell mass to which the medium was added were redispersed by gentle pipetting, and then centrifuged again at 1000 rpm for 3 minutes, and the supernatant was removed. The medium in an amount of 10 mL was added to the obtained cell mass, and the cell dispersion was filtered through a 40-μm nylon mesh (Cell Strainer) to remove the cell mass, thereby obtaining a neuronal cell suspension. The neuronal cell suspension was diluted with the medium, and 10% inactivated bovine serum (26140-079, Thermo Fisher Scientific) and 10% inactivated horse serum were added. Thereafter, 100 μL/well of the suspension was seeded in a 96-well plate (354461, CORNING) pre-coated with poly-D-lysine so that the initial culture density was 1.2×10^5 cells/cm^2. After the seeded cells were cultured under 5% CO2-95% air in a 37° C. incubator for 2 days, the entire medium was replaced with 120 μL of fresh medium, and the cells were subsequently cultured for 5 days.
On the 7th day of culture, compounds were added in the following manner. A solution of the test compound in DMSO was diluted with the medium so that the concentration was 10 times higher than the final concentration. Nerve Growth Factor (450-01, PEPRO TECH, INC.) was prepared at […]. These two solutions were added each in an amount of 15 μL/well, and the mixture was mixed well. The final DMSO concentration was 0.1% or less. Moreover, only DMSO and NGF were added to the control group.
(3) ACh Release Measurement
One day after the compound addition, an amount of ACh release was measured by HPLC in the following manner. A warmed buffer was added at 100 μL/well to the well after the medium was eliminated, and the buffer was immediately removed. Thereafter, a buffer to which 10 μm choline, 10 μm physostigmine, and 6 mM KCl were added was added at 120 μL/well. The buffer was prepared by adding 125 mM NaCl, 25 mM 4-(2-hydroxyethyl)-1-piperazineethanesulfonic acid, 1.2 mM KH2PO4, 1.2 mM MgSO4, 2.2 mM CaCl2 (2H2O), and 10 mM glucose to sterilized water, and the final pH of the solution was set to 7.4. After the 96-well plate to which the buffer was added was incubated under 5% CO2-95% air in a 37° C. incubator for 40 minutes, 80 μL of buffer was collected. An internal standard solution IPHC (5×10^−7 M) was added in an amount of 6 μL to the collected buffer, and the buffer was transferred to a tube for HPLC measurement and subjected to HPLC measurement. […]

| SMILES | change in vivo at 1 mg/kg ([1]; 1 mg/kg orally) [%] | minimal effective concentration [2] [µM] | change in vivo at 3 mg/kg ([1]; 3 mg/kg orally) [%] |
| --- | --- | --- | --- |
| CN1C[C@H]2C(=O)N(C)Cc3nc4sc5c(c4c(=O)n3[C@H]2C1)CC[C@@H](F)C5 [Example 15, (3aR,10R,14aR)-10-fluoro-2,5-dimethyl-2,3,3a,5,6,9,10,11,12,14a-decahydro-1H-benzo[4′,5′]thieno[2′,3′:4,5]pyrimido[1,2-a]pyrrolo[3,4-f][1,4]diazepine-4,13-dione] | 49 | 0.3 | – |
| COCCN1CCc2c(sc3nc4n(c(=O)c23)[C@H]2CCC[C@@H]2C(=O)N(C)C4)C1 [Example 16, (3aS,4aS)-10-(2-methoxyethyl)-5-methyl-2,3,3a,5,6,9,10,11,12,14a-decahydro-1H-cyclopenta[f]pyrido[4″,3″:4′,5′]thieno[2′,3′:4,5]pyrimido[1,2-a][1,4]diazepine-4,13-dione] | – | 0.03 | 42.5 |
